Measured values: ChEMBL document CHEMBL1201862, “PubChem BioAssay data set” (2004)
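Results reflect a 48-hour exposure of cells in 96-well plates to compound at five concentrations. Here, GI50 denotes the concentration required for 50% inhibition of growth.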 Activity calls are given as the source filed them. Rule as the data show it: active = GI50 up to about 1.1 µM and inactive = higher.

Key:
Test in all cases: NCI-60 cell line screen, 48 h
T47D = tested on: T47D
KM12 = tested on: KM12
MDA-N = tested on: MDA-N
OVCAR-4 = tested on: OVCAR-4
HL-60 = tested on: HL-60
U-251 = tested on: U-251
HT-29 = tested on: HT-29
OVCAR-8 = tested on: OVCAR-8
SK-OV-3 = tested on: SK-OV-3
NCI-H23 = tested on: NCI-H23
SF-539 = tested on: SF-539
SK-MEL-2 = tested on: SK-MEL-2
MDA-MB-435 = tested on: MDA-MB-435
NCI-H226 = tested on: NCI-H226
HCC 2998 = tested on: HCC 2998
SF-268 = tested on: SF-268
SK-MEL-28 = tested on: SK-MEL-28
HOP-18 = tested on: HOP-18
LOX IMVI = tested on: LOX IMVI
CAKI-1 = tested on: CAKI-1
SNB-78 = tested on: SNB-78
A549 = tested on: A549
HOP-62 = tested on: HOP-62
SW-620 = tested on: SW-620
DLD-1 = tested on: DLD-1
PC-3 = tested on: PC-3
UACC-62 = tested on: UACC-62
RXF 393 = tested on: RXF 393
HOP-92 = tested on: HOP-92
MDA-MB-231 = tested on: MDA-MB-231
K562 = tested on: K562
OVCAR-5 = tested on: OVCAR-5
KM-20L2 = tested on: KM-20L2
MCF7 = tested on: MCF7
DU-145 = tested on: DU-145
SNB-75 = tested on: SNB-75
DMS-273 = tested on: DMS-273
UACC-257 = tested on: UACC-257
NCI-H460 = tested on: NCI-H460
M19-MEL = tested on: M19-MEL
786-0 = tested on: 786-0
SR = tested on: SR
Malme-3M = tested on: Malme-3M
SK-MEL-5 = tested on: SK-MEL-5
SNB-19 = tested on: SNB-19
DMS-114 = tested on: DMS-114
COLO 205 = tested on: COLO 205
Hs-578T = tested on: Hs-578T
RPMI-8226 = tested on: RPMI-8226
BT-549 = tested on: BT-549
M14 = tested on: M14
NCI/ADR-RES = tested on: NCI/ADR-RES
SF-295 = tested on: SF-295
HCT-116 = tested on: HCT-116
MOLT-4 = tested on: MOLT-4
TK-10 = tested on: TK-10
ACHN = tested on: ACHN
SN12C = tested on: SN12C
HCT-15 = tested on: HCT-15
NCI-H522 = tested on: NCI-H522
EKVX = tested on: EKVX
XF498 = tested on: XF498
IGROV-1 = tested on: IGROV-1
CCRF-CEM = tested on: CCRF-CEM
OVCAR-3 = tested on: OVCAR-3
UO-31 = tested on: UO-31
A498 = tested on: A498

With `O=C(Cn1ccnc1[N+](=O)[O-])N(CCO)CCO` the GI50 (T47D) was > 250 µM (inactive), the GI50 (KM12) was > 250 µM (inactive) and the GI50 (MDA-N) was > 250 µM (inactive). For the same compound, the GI50 (OVCAR-4) was > 250 µM (inactive), the GI50 (HL-60) was > 250 µM (inactive) and the GI50 (U-251) was > 250 µM (inactive). For the same compound, the GI50 (HT-29) was > 250 µM (inactive), the GI50 (OVCAR-8) was > 250 µM (inactive) and the GI50 (SK-OV-3) was > 250 µM (inactive). The GI50 (NCI-H23) was > 250 µM (inactive), the GI50 (SF-539) was > 250 µM (inactive) and the GI50 (SK-MEL-2) was 191 µM (inactive). For the same compound, the GI50 (MDA-MB-435) was > 250 µM (inactive), the GI50 (NCI-H226) was > 250 µM (inactive) and the GI50 (HCC 2998) was > 250 µM (inactive). For the same compound, the GI50 (SF-268) was > 250 µM (inactive), the GI50 (SK-MEL-28) was > 250 µM (inactive) and the GI50 (HOP-18) was > 1250 µM (inactive). The GI50 (LOX IMVI) was > 1250 µM (inactive), the GI50 (CAKI-1) was > 250 µM (inactive) and the GI50 (SNB-78) was > 1250 µM (inactive). For the same compound, the GI50 (A549) was > 250 µM (inactive), the GI50 (HOP-62) was > 250 µM (inactive) and the GI50 (SW-620) was > 250 µM (inactive). For the same compound, the GI50 (DLD-1) was > 1250 µM (inactive), the GI50 (PC-3) was > 250 µM (inactive) and the GI50 (UACC-62) was > 250 µM (inactive). The GI50 (RXF 393) was > 250 µM (inactive), the GI50 (HOP-92) was > 1250 µM (inactive) and the GI50 (MDA-MB-231) was > 250 µM (inactive). The GI50 (K562) was > 250 µM (inactive), the GI50 (OVCAR-5) was > 250 µM (inactive) and the GI50 (KM-20L2) was > 1250 µM (inactive). For the same compound, the GI50 (MCF7) was > 1250 µM (inactive), the GI50 (DU-145) was > 250 µM (inactive) and the GI50 (SNB-75) was > 1250 µM (inactive). For the same compound, the GI50 (DMS-273) was > 1250 µM (inactive), the GI50 (UACC-257) was > 250 µM (inactive) and the GI50 (NCI-H460) was > 1250 µM (inactive). For the same compound, the GI50 (M19-MEL) was > 1250 µM (inactive), the GI50 (786-0) was > 250 µM (inactive) and the GI50 (SR) was > 79.1 µM (inactive). For the same compound, the GI50 (Malme-3M) was 135 µM (inactive), the GI50 (SK-MEL-5) was > 141 µM (inactive) and the GI50 (SNB-19) was > 250 µM (inactive). The GI50 (DMS-114) was > 1250 µM (inactive), the GI50 (COLO 205) was > 1250 µM (inactive) and the GI50 (Hs-578T) was > 250 µM (inactive). For the same compound, the GI50 (RPMI-8226) was 25 µM (inactive), the GI50 (BT-549) was > 250 µM (inactive) and the GI50 (M14) was > 250 µM (inactive). For the same compound, the GI50 (NCI/ADR-RES) was > 250 µM (inactive), the GI50 (SF-295) was > 250 µM (inactive) and the GI50 (HCT-116) was > 250 µM (inactive). For the same compound, the GI50 (MOLT-4) was > 250 µM (inactive), the GI50 (TK-10) was > 250 µM (inactive) and the GI50 (ACHN) was > 250 µM (inactive). For the same compound, the GI50 (SN12C) was > 250 µM (inactive), the GI50 (HCT-15) was > 250 µM and the GI50 (NCI-H522) was > 250 µM (inactive). The GI50 (EKVX) was > 250 µM (inactive), the GI50 (XF498) was > 58.1 µM (inactive) and the GI50 (IGROV-1) was > 250 µM (inactive). The GI50 (CCRF-CEM) was > 250 µM (inactive), the GI50 (OVCAR-3) was > 250 µM (inactive) and the GI50 (UO-31) was > 250 µM (inactive). The GI50 (A498) was > 1250 µM (inactive).
